Data: patent US20240309014A1, “MACROCYCLIC COMPOUNDS AND USES THEREOF” (President and Fellows of Harvard College, priority 2017, published 2024)

Columns and labels:
[1] = tested on: HCCl806 subcutaneous xenograft; experiment: Antitumor activity against HCC1806 subcutaneous xenograft as monotherapy; assay type: in vivo, nude mice; conditions: 0.18 mg/kg i.v., Q7Dx2
Experimental: A human breast cancer cell line HCCl806, which had been cultured in an RPMI-1640 medium containing 10% FBS, and penicillin and streptomycin, was adjusted to a concentration of 1×10^8 cells/mL with PBS to prepare a cell suspension, and the suspension was mixed with Matrigel™ (BD Bioscience, #366237) in a ratio of 1:1 to prepare a cell suspension in a concentration of 5×10^7 cell/mL. The cell suspension was inoculated in a volume of 100 μL into a subcutaneous part of a right flank of nude mice, 5 weeks of ages (CAnN.Cg-Foxnlnu/CrlCrlj, female, Charles River Laboratories Japan, Inc.). Twelve days after cell inoculation, the shortest diameter and the longest diameter of a tumor in each mouse were measured by using an electronic digital caliper (Digimatic™ caliper, Mitutoyo Corporation), so as to calculate the volume of the tumor in accordance with the following calculation formulae: […]
On the basis of the volumes of tumors obtained on the first day of administration, the mice were grouped such that averages of the tumor volumes were substantially equal among the groups. The experiment was conducted on groups each consisting of 6 mice. Test compound was dissolved in saline and intravenously administered at 0.18 mg/kg once a week for 2 weeks (Q7Dx2 schedule).

[2] = tested on: FaDu subcutaneous xenograft; experiment: FaDu subcutaneous xenograft in combination with cetuximab, single dose (FIG. 16); assay type: in vivo, athymic mice; conditions: single dose Day 1
Experimental: A human squamous cell carcinoma of the head and neck (SCCHN) cell line FaDu, which had been cultured in an RPMI-1640 medium containing 10% FBS, and penicillin-streptomycin, was adjusted to a concentration of 5×10^7 cells/mL with Hanks' Balanced Salt Solution to prepare a cell suspension. The cell suspension was inoculated in a volume of 100 μL into a subcutaneous part of a right flank of athymic mice (CAnN.Cg-Foxnlnu/CrlCrlj, female, 7 weeks old, Charles River Japan Inc.). Ten days after cell inoculation (Day 1), the length and the width of a tumor in each mouse were measured by using an electronic digital caliper (Mitutoyo Corporation), so as to calculate the volume of the tumor in accordance with the following calculation formula: […]
On the basis of TV, the mice were randomly grouped (Day 1). Each group was consisted in six mice. Compound (1) was dissolved in DMSO and a solution was stored in the freezer before use.

[3] = tested on: human angiosarcoma CTG-2041 tumor fragments; experiment: CTG-2041 xenograft as monotherapy (FIG. 17); assay type: in vivo, mice; conditions: 100 μg/kg i.v. Day 1 and Day 8
Experimental: Tumor fragments of human angiosarcoma CTG-2041 were implanted s.c. in the left flank of female mice. Tumor growth was monitored twice a week using digital caliper, so as to calculate the volume of the tumor in accordance with the following calculation formula: […]
When the volume of tumors reached approximately 200 mm^3, animals are matched by tumor volume into treatment or control groups and dosing initiated on Day 1. Each group was consisted with five mice. Compound (1) was dissolved in DMSO and a solution was stored in the freezer before use. Compound (1) (100 μg/kg) diluted in saline and intravenously injected on Day 1 and Day 8.

## C=C1C[C@@H]2CC[C@@]34C[C@H]5O[C@H]6[C@@H](O3)[C@H]3O[C@H](CC[C@@H]3O[C@H]6C5O4)CC(=O)O[C@@H]3[C@@H](C)[C@@H]4O[C@@H]5C[C@]6(C[C@@H]7O[C@]8(C[C@H](C)[C@@H]9O[C@H](CN)[C@H](O)C[C@@H]9O8)C[C@H](C)[C@@H]7O6)O[C@@H]5C[C@@H]4O[C@H]3C[C@H]3O[C@@H](CC[C@@H]1O2)C[C@@H](C)C3=C (stereo in doubt) [Compound (1)]
[1]
  Tumor Regression (%): 90%
[2]; 20 μg/kg + cetuximab 10 mg/kg
  antitumor efficacy with CTX: tended to be stronger than that of CTX monotherapy
[2]; 180 μg/kg and 60 μg/kg + cetuximab 10 mg/kg
  antitumor efficacy with CTX: stronger than that of CTX monotherapy with tumor regression
[3]
  antitumor activity: tumor regression
